Here are results for 1 compound from ChEMBL document CHEMBL4177573 (Bioorg Med Chem, 2017).

Each structure is given as a SMILES string. The source made the active and inactive calls. The rule behind the calls is not given here.

The target in data set [1] is T1, Neuropeptide Y receptor type 2 (Homo sapiens, UniProt P49146).
T1 sequence (P49146 whole entry): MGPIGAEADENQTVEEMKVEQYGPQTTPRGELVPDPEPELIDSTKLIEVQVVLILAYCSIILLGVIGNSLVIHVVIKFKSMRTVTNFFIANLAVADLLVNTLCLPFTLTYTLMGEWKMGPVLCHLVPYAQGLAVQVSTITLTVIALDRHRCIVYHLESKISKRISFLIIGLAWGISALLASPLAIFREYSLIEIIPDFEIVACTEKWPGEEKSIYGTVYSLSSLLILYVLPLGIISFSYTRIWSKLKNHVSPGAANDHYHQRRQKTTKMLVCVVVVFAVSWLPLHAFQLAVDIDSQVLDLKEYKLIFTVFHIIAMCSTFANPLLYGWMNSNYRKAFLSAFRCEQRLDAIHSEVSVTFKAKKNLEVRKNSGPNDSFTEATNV
As to the kind of experiment: Agonist activity at human neuropeptide Y2 receptor expressed in CHO cell membranes assessed as stimulation of [35S]GTPgammaS binding incubated for 120 mins by liquid scintillation counting method. It is filed as functional. Background: Binding of GTPγS marks nucleotide exchange on a G protein.

Data set [2] deals with Mus musculus. As to the kind of experiment: Anorectic activity in C57BL/6J mouse assessed as inhibition of food intake at 0.03 mg/kg/day, sc for 3 days dosed as continuous administration by infusion using osmotic pump. The note with it: 72 h. It is filed as functional.
Data set [3] concerns Mus musculus. Description: Anorectic activity in C57BL/6J mouse assessed as inhibition of food intake at 0.3 mg/kg/day, sc dosed as […] and measured after 12 hrs. It is filed as functional.
Data set [4] relates to Mus musculus. Description: Antiobesity activity in DIO C57BL/6J mouse assessed as reduction in body weight at 0.01 mg/kg, sc for 2 weeks dosed as continuous administration by infusion of osmotic pumps. It is filed as functional. The note with it: 336 h.
For data set [5], the system named is Mus musculus. As to the kind of experiment: Antiobesity activity in DIO C57BL/6J mouse assessed as reduction in body weight at 1 mg/kg, sc […] for 2 weeks dosed by infusion of osmotic pumps. It is filed as functional. The settings on record: 336 h.
In data set [6] the test system is Mus musculus. As to the kind of experiment: Drug level in C57BL/6J mouse at 1 mg/kg, iv measured during 5 mins to 24 hrs by LC/MS/MS method. It is filed as ADME, organism-based. The note with it: in vivo, read-out: Drug uptake.
The nature of data set [7]: MRT in C57BL/6J mouse at 1 mg/kg, iv measured during 5 mins to 24 hrs by LC/MS/MS method. The data set is classed as ADME, organism-based. The settings on record: in vivo.
Data set [8] in a line: Volume of distribution at steady state in C57BL/6J mouse at 1 mg/kg, iv measured during 5 mins to 24 hrs by LC/MS/MS method. The note with it: in vivo, read-out: Vdss. It is filed as ADME, organism-based.
Data set [9] is described as follows: Total clearance in C57BL/6J mouse at 1 mg/kg, iv measured during 5 mins to 24 hrs by LC/MS/MS method. The data set is classed as ADME, organism-based. The note with it: in vivo.
Data set [10] is described as follows: Cmax in C57BL/6J mouse at 1 mg/kg, sc measured during 5 mins to 24 hrs by LC/MS/MS method. The data set is classed as ADME, organism-based. On the set-up: dose 1 mg/kg, route subcutaneous. The note with it: in vivo.
Data set [11] in a line: Tmax in C57BL/6J mouse at 1 mg/kg, sc measured during 5 mins to 24 hrs by LC/MS/MS method. The data set is classed as ADME, organism-based. The settings on record: in vivo.
Data set [12] can be described thus: MRT in C57BL/6J mouse at 1 mg/kg, sc measured during 5 mins to 24 hrs by LC/MS/MS method. The note with it: in vivo. It is filed as ADME, organism-based.
Data set [13] can be described thus: Bioavailability in C57BL/6J mouse at 1 mg/kg, sc measured during 5 mins to 24 hrs by LC/MS/MS method. The data set is classed as ADME, organism-based. The note with it: in vivo.
Data set [14] concerns the target T2, Neuropeptide Y receptor type 2 (Rattus norvegicus, UniProt Q9ERC0).
T2 sequence (Q9ERC0 whole entry): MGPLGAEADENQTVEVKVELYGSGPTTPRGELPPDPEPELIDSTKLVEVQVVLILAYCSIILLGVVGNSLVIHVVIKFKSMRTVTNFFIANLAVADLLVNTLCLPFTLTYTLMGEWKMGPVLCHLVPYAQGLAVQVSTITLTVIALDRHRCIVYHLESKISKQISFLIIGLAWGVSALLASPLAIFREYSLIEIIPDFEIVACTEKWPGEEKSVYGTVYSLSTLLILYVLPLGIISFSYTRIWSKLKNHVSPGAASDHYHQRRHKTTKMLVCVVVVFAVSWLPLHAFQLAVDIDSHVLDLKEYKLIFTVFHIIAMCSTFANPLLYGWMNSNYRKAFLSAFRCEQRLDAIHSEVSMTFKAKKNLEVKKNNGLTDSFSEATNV
Description: Agonist activity at rat neuropeptide Y2 receptor by [35S]GTPgammaS binding assay. It is filed as functional.

In data set [15] the target is T3, Neuropeptide Y receptor type 1 (Homo sapiens, UniProt P25929).
T3 sequence (P25929 whole entry): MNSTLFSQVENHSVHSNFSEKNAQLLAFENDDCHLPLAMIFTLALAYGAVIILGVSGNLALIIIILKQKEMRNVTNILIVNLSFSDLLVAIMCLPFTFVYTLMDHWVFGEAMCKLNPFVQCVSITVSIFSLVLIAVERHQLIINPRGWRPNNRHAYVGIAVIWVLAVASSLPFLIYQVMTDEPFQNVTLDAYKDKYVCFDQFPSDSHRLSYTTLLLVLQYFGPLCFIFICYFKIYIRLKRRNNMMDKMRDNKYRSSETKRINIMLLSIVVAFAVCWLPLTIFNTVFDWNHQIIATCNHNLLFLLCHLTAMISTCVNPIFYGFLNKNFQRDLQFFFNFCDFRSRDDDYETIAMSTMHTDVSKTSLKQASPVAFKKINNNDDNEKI
As to the kind of experiment: Agonist activity at human neuropeptide Y1 receptor by [35S]GTPgammaS binding assay. The data set is classed as functional.

For data set [16], the target named is Neuropeptide Y receptor type 4 (Rattus norvegicus, UniProt Q63447). Description: Agonist activity at rat neuropeptide Y4 receptor by [35S]GTPgammaS binding assay. The data set is classed as functional.
Sequence of Neuropeptide Y receptor type 4 (Q63447 whole entry, the tested form may be a part): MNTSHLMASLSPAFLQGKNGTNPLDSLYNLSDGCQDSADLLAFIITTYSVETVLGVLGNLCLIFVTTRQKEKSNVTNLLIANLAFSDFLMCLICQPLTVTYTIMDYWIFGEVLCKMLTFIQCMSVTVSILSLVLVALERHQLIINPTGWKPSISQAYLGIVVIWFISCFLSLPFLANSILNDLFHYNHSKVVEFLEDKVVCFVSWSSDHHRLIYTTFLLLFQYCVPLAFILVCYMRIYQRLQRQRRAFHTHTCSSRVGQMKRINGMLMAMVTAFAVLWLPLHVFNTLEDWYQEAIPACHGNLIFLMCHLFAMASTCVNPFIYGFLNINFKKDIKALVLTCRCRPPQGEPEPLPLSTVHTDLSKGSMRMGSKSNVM
Data set [17] deals with Mus musculus. As to the kind of experiment: Antiobesity activity in DIO C57BL/6J mouse assessed as reduction in body weight at 0.03 mg/kg, sc for 2 weeks dosed as continuous administration by infusion of osmotic pumps relative to untreated control. The data set is classed as functional. The note with it: 336 h.
Data set [18] deals with Mus musculus. As to the kind of experiment: Anorectic activity in DIO C57BL/6J mouse assessed as reduction in cumulative food intake at 0.01 mg/kg, sc for 2 weeks dosed as continuous administration by infusion of osmotic pumps relative to untreated control. It is filed as functional, organism-based.
The test system of data set [19] is Mus musculus. As to the kind of experiment: Antiobesity activity in DIO C57BL/6J mouse assessed as reduction in liver weight at 0.003 to 0.03 mg/kg, sc for 2 weeks dosed as continuous administration by infusion of osmotic pumps relative to untreated control. It is filed as functional, organism-based.
Data set [20] has as its system Mus musculus. Description: Antiobesity activity in DIO C57BL/6J mouse assessed as reduction in mesenteric fat weight at 0.003 to 0.03 mg/kg, sc for 2 weeks dosed as continuous administration by infusion of osmotic pumps relative to untreated control. It is filed as functional, organism-based.
The subject of data set [21] is Mus musculus. As to the kind of experiment: Anorectic activity in C57BL/6J mouse assessed as inhibition of food intake at 0.03 to 1 mg/kg/day, sc for 3 days dosed as continuous administration by infusion using osmotic pump. It is filed as functional, organism-based.
The subject of data set [22] is Mus musculus. As to the kind of experiment: Antiobesity activity in DIO C57BL/6J mouse assessed as reduction in body weight at 0.003 to 0.03 mg/kg, sc for 2 weeks dosed as continuous administration by infusion of osmotic pumps relative to untreated control. The data set is classed as functional, organism-based.
The test system of data set [23] is Mus musculus. As to the kind of experiment: Anorectic activity in DIO C57BL/6J mouse assessed as reduction in cumulative food intake at 0.03 mg/kg, sc for 2 weeks dosed as continuous administration by infusion of osmotic pumps relative to 0.3 mg/kg/day, sc PYY(3-36). It is filed as functional.

`CC[C@](C)(NC(=O)[C@H]1C[C@H](O)CN1C(=O)[C@H](CO)NC(=O)c1c[nH]cn1)C(=O)N[C@@H](Cc1ccncc1)C(=O)N[C@@H](CC1CCCCC1)C(=O)N[C@@H](CC(C)(C)C)C(=O)N[C@@H](CC(N)=O)C(=O)N[C@@H](CCCCN)C(=O)NC(C)(C)C(=O)N[C@H](C(=O)N[C@@H](CCCNC(=N)N)C(=O)N[C@@H](CCC(N)=O)C(=O)N[C@@H](CCCNC(=N)N)C(=O)N[C@@H](CC1CCCCC1)C(N)=O)[C@@H](C)O`: the EC50 (usually the concentration at which the effect is half-maximal) in data set [1] is 0.15 nM; in data set [14], 0.038 nM; in data set [15], over 1000 nM; in data set [16], over 1000 nM. For the same compound, the inhibition in vivo (in general, the relative decrease from the control value, in per cent) at 0.03 mg/kg/day in [2] came to 52%. In [3], the inhibition in vivo at 0.3 mg/kg/day was found to be 41%. In addition, in [4], the inhibition in vivo at 0.01 mg/kg was determined as 8.9%. In addition, the inhibition in vivo at 1 mg/kg in [5] turned out to be 7.6%. The concentration in data set [6] was 2060 nM. The figures for the MRT in [7] and in [12] were 21 min and 33.6 min, respectively. In addition, in data set [8], the Vd stood at 0.293 L/kg. For the same compound, the clearance (in general, the volume of plasma or blood freed of the substance per unit of time) in [9] was 14.2 mL/min/kg. The concentration in data set [10] peaked (Cmax) at 452 nM. For the same compound, the Tmax (in general, the time from dosing to the highest level) in data set [11] came to 10.2 min. The bioavailability (commonly the share of a dose that reaches the circulation, judged against a reference dose that is usually intravenous) in data set [13] turned out to be 60.2%. Moreover, the inhibition in vivo at 0.03 mg/kg in data set [17] worked out at 15.1%. Besides, the outcome in [18], in data set [19] and in data set [20] was Active. Also, the Activity entry in data set [21] and in [22] was “Dose-dependent effect” each time. Also, the “fold change (FC)” value in data set [23] came out at 30.
